Results published in ChEMBL document CHEMBL4138146, “A Schmidt rearrangement-mediated synthesis of novel tetrahydro-benzo[1,4]diazepin-5-ones as potential anticancer and antiprotozoal agents” (Eur J Med Chem, 2017).

Legend:
Type in all cases: functional
[1] = test system: NCI-H522; test: Growth inhibition of human NCI-H522 cells assessed as cell growth at 10^-5 M incubated for 48 hrs by sulforhodamine B assay relative to control; conditions: NCI-H522, 48 h, read-out: Activity
[2] = test system: OVCAR-8; test: Growth inhibition of human OVCAR8 cells assessed as cell growth at 10^-8 M incubated for 48 hrs by sulforhodamine B assay relative to control; conditions: OVCAR-8, 48 h, read-out: Activity
[3] = test system: EKVX; test: Growth inhibition of human EKVX cells assessed as cell growth at 10^-8 M incubated for 48 hrs by sulforhodamine B assay relative to control; conditions: read-out: Activity
[4] = test system: 786-0; test: Growth inhibition of human 786-0 cells assessed as cell growth at 10^-5 M incubated for 48 hrs by sulforhodamine B assay relative to control; conditions: 786-0, 48 h, read-out: Activity
[5] = test system: CCRF-CEM; test: Growth inhibition of human CCRF-CEM cells assessed as cell growth at 10^-4 M incubated for 48 hrs by sulforhodamine B assay relative to control; conditions: read-out: Activity
[6] = test system: NCI-H226; test: Growth inhibition of human NCI-H226 cells assessed as cell growth at 10^-6 M incubated for 48 hrs by sulforhodamine B assay relative to control; conditions: NCI-H226, 48 h, read-out: Activity
[7] = test system: SNB-75; test: Growth inhibition of human SNB75 cells assessed as cell growth at 10^-6 M incubated for 48 hrs by sulforhodamine B assay relative to control; conditions: SNB-75, 48 h, read-out: Activity
[8] = test system: HT-29; test: Growth inhibition of human HT-29 cells assessed as cell growth at 10^-7 M incubated for 48 hrs by sulforhodamine B assay relative to control; conditions: HT-29, 48 h, read-out: Activity
[9] = test system: MOLT-4; test: Growth inhibition of human MOLT4 cells assessed as cell growth at 10^-8 M incubated for 48 hrs by sulforhodamine B assay relative to control; conditions: MOLT-4, 48 h, read-out: Activity
[10] = test system: UO-31; test: Growth inhibition of human UO31 cells assessed as cell growth at 10^-5 M incubated for 48 hrs by sulforhodamine B assay relative to control; conditions: UO-31, 48 h, read-out: Activity
[11] = test system: HCC 2998; test: Growth inhibition of human HCC2998 cells assessed as cell growth at 10^-7 M incubated for 48 hrs by sulforhodamine B assay relative to control; conditions: HCC 2998, 48 h, read-out: Activity
[12] = test system: SF-268; test: Growth inhibition of human SF268 cells assessed as cell growth at 10^-5 M incubated for 48 hrs by sulforhodamine B assay relative to control; conditions: SF-268, 48 h, read-out: Activity
[13] = test system: NCI-H460; test: Growth inhibition of human NCI-H460 cells assessed as cell growth at 10^-5 M incubated for 48 hrs by sulforhodamine B assay relative to control; conditions: NCI-H460, 48 h, read-out: Activity
[14] = test system: CAKI-1; test: Growth inhibition of human Caki1 cells assessed as cell growth at 10^-7 M incubated for 48 hrs by sulforhodamine B assay relative to control; conditions: CAKI-1, 48 h, read-out: Activity
[15] = test system: HL-60(TB); test: Growth inhibition of human HL-60(TB) cells assessed as cell growth at 10^-6 M incubated for 48 hrs by sulforhodamine B assay relative to control; conditions: HL-60, 48 h, read-out: Activity
[16] = test system: Hs-578T; test: Growth inhibition of human Hs 578T cells assessed as cell growth at 10^-5 M incubated for 48 hrs by sulforhodamine B assay relative to control; conditions: read-out: Activity
[17] = test system: 786-0; test: Growth inhibition of human 786-0 cells assessed as cell growth at 10^-6 M incubated for 48 hrs by sulforhodamine B assay relative to control; conditions: 786-0, 48 h, read-out: Activity
[18] = test system: UO-31; test: Growth inhibition of human UO31 cells assessed as cell growth at 10^-4 M incubated for 48 hrs by sulforhodamine B assay relative to control; conditions: UO-31, 48 h, read-out: Activity
[19] = test system: UO-31; test: Growth inhibition of human UO31 cells assessed as cell growth at 10^-8 M incubated for 48 hrs by sulforhodamine B assay relative to control; conditions: UO-31, 48 h, read-out: Activity
[20] = test system: SF-295; test: Growth inhibition of human SF295 cells assessed as cell growth at 10^-6 M incubated for 48 hrs by sulforhodamine B assay relative to control; conditions: SF-295, 48 h, read-out: Activity
[21] = test system: HT-29; test: Growth inhibition of human HT-29 cells assessed as cell growth at 10^-8 M incubated for 48 hrs by sulforhodamine B assay relative to control; conditions: HT-29, 48 h, read-out: Activity
[22] = test system: SK-MEL-5; test: Growth inhibition of human SK-MEL-5 cells assessed as cell growth at 10^-4 M incubated for 48 hrs by sulforhodamine B assay relative to control; conditions: SK-MEL-5, 48 h, read-out: Activity
[23] = test system: CCRF-CEM; test: Growth inhibition of human CCRF-CEM cells assessed as cell growth at 10^-7 M incubated for 48 hrs by sulforhodamine B assay relative to control; conditions: read-out: Activity
[24] = test system: MDA-MB-468; test: Growth inhibition of human MDA-MB-468 cells assessed as cell growth at 10^-6 M incubated for 48 hrs by sulforhodamine B assay relative to control; conditions: MDA-MB-468, 48 h, read-out: Activity
[25] = test system: IGROV-1; test: Growth inhibition of human IGROV1 cells assessed as cell growth at 10^-4 M incubated for 48 hrs by sulforhodamine B assay relative to control; conditions: IGROV-1, 48 h, read-out: Activity
[26] = test system: M14; test: Growth inhibition of human M14 cells assessed as cell growth at 10^-4 M incubated for 48 hrs by sulforhodamine B assay relative to control; conditions: M14, 48 h, read-out: Activity
[27] = test system: MDA-MB-435; test: Growth inhibition of human MDA-MB-435 cells assessed as cell growth at 10^-4 M incubated for 48 hrs by sulforhodamine B assay relative to control; conditions: MDA-MB-435, 48 h, read-out: Activity
[28] = test system: SW-620; test: Growth inhibition of human SW620 cells assessed as cell growth at 10^-8 M incubated for 48 hrs by sulforhodamine B assay relative to control; conditions: SW-620, 48 h, read-out: Activity
[29] = test system: HCT-15; test: Growth inhibition of human HCT15 cells assessed as cell growth at 10^-5 M incubated for 48 hrs by sulforhodamine B assay relative to control; conditions: HCT-15, 48 h, read-out: Activity
[30] = test system: NCI-H460; test: Growth inhibition of human NCI-H460 cells assessed as cell growth at 10^-8 M incubated for 48 hrs by sulforhodamine B assay relative to control; conditions: NCI-H460, 48 h, read-out: Activity
[31] = test system: HCC 2998; test: Growth inhibition of human HCC2998 cells assessed as cell growth at 10^-6 M incubated for 48 hrs by sulforhodamine B assay relative to control; conditions: HCC 2998, 48 h, read-out: Activity
[32] = test system: SK-MEL-2; test: Growth inhibition of human SK-MEL-2 cells assessed as cell growth at 10^-4 M incubated for 48 hrs by sulforhodamine B assay relative to control; conditions: SK-MEL-2, 48 h, read-out: Activity
[33] = test system: KM12; test: Growth inhibition of human KM12 cells assessed as cell growth at 10^-5 M incubated for 48 hrs by sulforhodamine B assay relative to control; conditions: KM12, 48 h, read-out: Activity

SMILES: CCCCOc1nc2ccccc2cc1C1CNC(=O)c2ccccc2N1 (stereo not drawn)
- growth at 10 µM [1]: 25%
- growth at 0.01 µM [2]: 100%
- growth at 0.01 µM [3]: 90%
- growth at 10 µM [4]: 1%
- growth at 100 µM [5]: -17%
- growth at 1 µM [6]: 92%
- growth at 1 µM [7]: 63%
- growth at 0.1 µM [8]: 98%
- growth at 0.01 µM [9]: 70%
- growth at 10 µM [10]: 31%
- growth at 0.1 µM [11]: 93%
- growth at 10 µM [12]: 31%
- growth at 10 µM [13]: 5%
- growth at 0.1 µM [14]: 86%
- growth at 1 µM [15]: -19%
- growth at 10 µM [16]: 28%
- growth at 1 µM [17]: 90%
- growth at 100 µM [18]: -67%
- growth at 0.01 µM [19]: 80%
- growth at 1 µM [20]: 59%
- growth at 0.01 µM [21]: 94%
- growth at 100 µM [22]: -24%
- growth at 0.1 µM [23]: 100%
- growth at 1 µM [24]: 66%
- growth at 100 µM [25]: -51%
- growth at 100 µM [26]: -52%
- growth at 100 µM [27]: -74%
- growth at 0.01 µM [28]: 96%
- growth at 10 µM [29]: 3%
- growth at 0.01 µM [30]: 101%
- growth at 1 µM [31]: 93%
- growth at 100 µM [32]: -15%
- growth at 10 µM [33]: 17%
